Values joined by “and” are separate entries in the source; they are usually repeats but may differ in a detail not shown here. Equal entries are not always repeated. Inconclusive results and toxic doses are left out. Rule as the data show it: active = T/C of 150% or more; inactive = T/C below 125%.
System: L1210 leukemia ip in BDF1 mice, survival T/C
Test: NCI In Vivo Anticancer Drug Screen. Data for tumor model L1210 Leukemia (intraperitoneal) in B6D2F1 (BDF1) mice
Conditions: endpoint: mean survival time, higher = longer survival
Method in brief: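 Ratio derived from survival: compound-dosed mice over vehicle-dosed mice, all bearing a transplantable tumor.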

[1] = dose: 75.0 mg/kg/injection, schedule: Q01DX001 (ip), vehicle: saline
[2] = dose: 150.0 mg/kg/injection, schedule: Q01DX001 (ip), vehicle: saline
[3] = dose: 100.0 mg/kg/injection, schedule: Q04DX003 (ip), vehicle: Klucel (hydroxypropylcellulose) (HPC)
[4] = dose: 200.0 mg/kg/injection, schedule: Q04DX003 (ip), vehicle: Klucel (hydroxypropylcellulose) (HPC)
[5] = dose: 400.0 mg/kg/injection, schedule: Q04DX003 (ip), vehicle: Klucel (hydroxypropylcellulose) (HPC)
[6] = dose: 100.0 mg/kg/injection, schedule: Q01DX009 (ip), vehicle: Klucel (hydroxypropylcellulose) (HPC)
[7] = dose: 200.0 mg/kg/injection, schedule: Q01DX009 (ip), vehicle: Klucel (hydroxypropylcellulose) (HPC)
[8] = dose: 100.0 mg/kg/injection, schedule: Q04DX002 (ip), vehicle: saline
[9] = dose: 200.0 mg/kg/injection, schedule: Q04DX002 (ip), vehicle: saline
[10] = dose: 100.0 mg/kg/injection, schedule: Q04DX003 (ip), vehicle: saline with Tween-80
[11] = dose: 200.0 mg/kg/injection, schedule: Q04DX003 (ip), vehicle: saline with Tween-80
[12] = dose: 400.0 mg/kg/injection, schedule: Q04DX003 (ip), vehicle: saline with Tween-80
[13] = dose: 100.0 mg/kg/injection, schedule: Q04DX002 (ip), vehicle: Klucel (hydroxypropylcellulose) (HPC)
[14] = dose: 200.0 mg/kg/injection, schedule: Q04DX002 (ip), vehicle: Klucel (hydroxypropylcellulose) (HPC)
[15] = dose: 400.0 mg/kg/injection, schedule: Q01DX009 (ip), vehicle: Klucel (hydroxypropylcellulose) (HPC)
[16] = dose: 400.0 mg/kg/injection, schedule: Q04DX002 (ip), vehicle: Klucel (hydroxypropylcellulose) (HPC)

Measured: T/C

COC(=O)c1ccc2c(ccc[n+]2C)c1
inactive: dose: 37.5 mg/kg/injection, schedule: Q04DX003 (ip), vehicle: saline with Tween-80 96 % of control | [1] 97 % of control | dose: 75.0 mg/kg/injection, schedule: Q04DX003 (ip), vehicle: saline with Tween-80 96 % of control | [2] 90 % of control | dose: 150.0 mg/kg/injection, schedule: Q04DX003 (ip), vehicle: saline with Tween-80 89 % of control

CSc1ccc(NC(=O)C(F)(F)F)cc1
inactive: dose: 50.0 mg/kg/injection, schedule: Q01DX001 (ip), vehicle: carboxymethylcellulose (CMC) 97 % of control | dose: 100.0 mg/kg/injection, schedule: Q01DX001 (ip), vehicle: carboxymethylcellulose (CMC) 92 % of control | dose: 200.0 mg/kg/injection, schedule: Q01DX001 (ip), vehicle: carboxymethylcellulose (CMC) 97 % of control | dose: 400.0 mg/kg/injection, schedule: Q01DX001 (ip), vehicle: carboxymethylcellulose (CMC) 95 % of control

O=C(CC(c1ccccc1)c1ccccc1)NS(=O)(=O)c1ccccc1
inactive: [3] 94 % of control | [4] 97 % of control | [5] 97 % of control

COC(=O)c1cc(=O)c2cccc(C(=O)O)c2[nH]1
inactive: dose: 50.0 mg/kg/injection, schedule: Q01DX009 (ip), vehicle: Klucel (hydroxypropylcellulose) (HPC) 109 % of control | [6] 98 % of control | [7] 102 % of control

C/C=C/C=C\COC(=O)C1CC1
inactive: [8] 116 % of control | [9] 121 % of control

CN(C)C(=S)OCC(C)(C)C
inactive: [10] 113 % of control | [11] 100 % of control | [12] 97 % of control

Cc1cnc(N)c([N+](=O)[O-])c1
inactive: dose: 100.0 mg/kg/injection, schedule: Q01DX005 (ip), vehicle: Klucel (hydroxypropylcellulose) (HPC) 94 % of control | [6] 97 % of control | [13] 96 % of control | dose: 200.0 mg/kg/injection, schedule: Q01DX005 (ip), vehicle: Klucel (hydroxypropylcellulose) (HPC) 94 % of control | [7] 97 % of control | [14] 100 % of control | dose: 400.0 mg/kg/injection, schedule: Q01DX005 (ip), vehicle: Klucel (hydroxypropylcellulose) (HPC) 94 % of control | [15] 91 % of control | [16] 93 % of control

Cc1ccc(NC(=O)c2c(Br)c(Br)c(Br)c(Br)c2C(=O)O)cc1Cl
inactive: [6] 100 % of control | [13] 96 % of control | [7] 96 % of control | [14] 110 % of control | [16] 102 % of control

O=C1c2ccccc2C(c2ccccc2)(N(CCCl)CCCl)N1C1CCCCC1 (stereo not drawn)
inactive: [3] 103 % of control | [4] 102 % of control | [5] 97 % of control

CC(C)(C)[CH2][Sn]([Cl])([CH2]C(C)(C)C)[CH2]C(C)(C)C
inactive: dose: 12.5 mg/kg/injection, schedule: Q04DX002 (ip), vehicle: saline with Tween-80 92 % of control

CCc1ccccc1NC(=O)Nc1cc(C)on1
inactive: [6] 103 % of control | [7] 110 % of control | [15] 107 % of control

Nc1cc(Cl)cc2c1-c1c(Cl)cc(Cl)cc1C2O (stereo not drawn)
inactive: [6] 102 % of control | [3] 102 % of control | [7] 100 % of control | [4] 105 % of control | [5] 97 % of control

CC(C)=CC(=O)OCC[N+](C)(C)C
inactive: dose: 3.12 mg/kg/injection, schedule: Q01DX009 (ip), vehicle: saline 104 % of control | dose: 6.25 mg/kg/injection, schedule: Q01DX009 (ip), vehicle: saline 98 % of control | dose: 12.5 mg/kg/injection, schedule: Q01DX009 (ip), vehicle: saline 102 % of control and 109 % of control

CC1([N+](=O)[O-])COP(=O)(N2CC2)OC1 (stereo not drawn)
inactive: dose: 62.5 mg/kg/injection, schedule: Q01DX Z (ip), vehicle: carboxymethylcellulose (CMC) 87 % of control | dose: 125.0 mg/kg/injection, schedule: Q01DX Z (ip), vehicle: carboxymethylcellulose (CMC) 90 % of control

Cc1cc(-n2c(C)ccc2C)no1
inactive: [10] 100 % of control | [11] 90 % of control | [12] 101 % of control

Cc1cc(C)cc(N=Cc2ccccc2)c1
inactive: dose: 50.0 mg/kg/injection, schedule: Q01DX001 (ip), vehicle: saline with Tween-80 98 % of control | dose: 100.0 mg/kg/injection, schedule: Q01DX001 (ip), vehicle: saline with Tween-80 98 % of control | dose: 200.0 mg/kg/injection, schedule: Q01DX001 (ip), vehicle: saline with Tween-80 95 % of control

CCOC1(OCC)C(C)C(c2ccccc2)C(c2ccccc2)C1C (stereo not drawn)
inactive: [1] 95 % of control | [2] 90 % of control | dose: 300.0 mg/kg/injection, schedule: Q01DX001 (ip), vehicle: saline 89 % of control

CN/C=C1\CCOC1=O
inactive: [8] 124 % of control | [9] 101 % of control | dose: 400.0 mg/kg/injection, schedule: Q04DX002 (ip), vehicle: saline 90 % of control

O=[N+]([O-])c1ccccc1N=P(c1ccccc1)(c1ccccc1)c1ccccc1
inactive: dose: 50.0 mg/kg/injection, schedule: Q01DX009 (ip), vehicle: DMSO 91 % of control | dose: 100.0 mg/kg/injection, schedule: Q01DX009 (ip), vehicle: DMSO 88 % of control | dose: 100.0 mg/kg/injection, schedule: Q04DX003 (ip), vehicle: DMSO 93 % of control | dose: 200.0 mg/kg/injection, schedule: Q04DX003 (ip), vehicle: DMSO 93 % of control

O=C(O)CCCC(=O)NC1CC2c3ccccc3C1c1ccccc12 (stereo not drawn)
inactive: dose: 100.0 mg/kg/injection, schedule: Q01DX009 (ip), vehicle: saline sonified 101 % of control | [3] 94 % of control | dose: 200.0 mg/kg/injection, schedule: Q01DX009 (ip), vehicle: saline sonified 100 % of control | [4] 96 % of control | dose: 400.0 mg/kg/injection, schedule: Q01DX009 (ip), vehicle: saline sonified 100 % of control | [5] 91 % of control

Cc1ccc(C)c(CCCCS(N)(=O)=O)c1
inactive: [3] 100 % of control | [4] 104 % of control | [5] 100 % of control

CN1CCc2ccccc2C1Cc1cc(OCc2ccccc2)ccc1N (stereo not drawn)
inactive: dose: 10.0 mg/kg/injection, schedule: Q01DX001 (ip), vehicle: carboxymethylcellulose (CMC) 89 % of control | dose: 20.0 mg/kg/injection, schedule: Q01DX001 (ip), vehicle: carboxymethylcellulose (CMC) 95 % of control | dose: 40.0 mg/kg/injection, schedule: Q01DX001 (ip), vehicle: carboxymethylcellulose (CMC) 93 % of control | dose: 80.0 mg/kg/injection, schedule: Q01DX001 (ip), vehicle: carboxymethylcellulose (CMC) 98 % of control

CN(CCN(C)C(=S)S)C(=S)S
inactive: dose: 100.0 mg/kg/injection, schedule: Q01DX002 (ip), vehicle: saline 99 % of control | dose: 200.0 mg/kg/injection, schedule: Q01DX002 (ip), vehicle: saline 99 % of control | dose: 400.0 mg/kg/injection, schedule: Q01DX002 (ip), vehicle: saline 105 % of control
